The values below come from patent US10173991B2, “Sulfone amide linked benzothiazole inhibitors of endothelial lipase” (BRISTOL-MYERS SQUIBB COMPANY, priority 2014, dated 2019).

pIC50: −log10 of the molar value.

The target of the first assay is Endothelial lipase (EL) (Homo sapiens (Human), UniProt Q9Y5X9). The assay is described as follows: Endothelial lipase (EL) enzymatic assay with fluorescent substrate A10070 in DMPG vesicles. Type of assay: biochemical.
Endothelial lipase (EL), sequence (Q9Y5X9 21-500): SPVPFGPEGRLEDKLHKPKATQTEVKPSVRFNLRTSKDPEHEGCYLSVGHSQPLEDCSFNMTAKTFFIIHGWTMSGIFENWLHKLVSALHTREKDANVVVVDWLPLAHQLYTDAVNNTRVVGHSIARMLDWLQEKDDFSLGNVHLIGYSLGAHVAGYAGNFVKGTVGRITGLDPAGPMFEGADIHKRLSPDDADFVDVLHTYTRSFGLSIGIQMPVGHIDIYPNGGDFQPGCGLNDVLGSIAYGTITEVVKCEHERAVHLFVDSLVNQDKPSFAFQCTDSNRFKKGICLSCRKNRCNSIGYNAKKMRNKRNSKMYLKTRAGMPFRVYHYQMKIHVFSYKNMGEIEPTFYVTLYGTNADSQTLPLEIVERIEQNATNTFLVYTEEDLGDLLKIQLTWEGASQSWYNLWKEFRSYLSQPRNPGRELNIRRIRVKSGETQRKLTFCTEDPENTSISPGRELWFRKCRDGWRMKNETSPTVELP
Settings: not given
The method in brief: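 EL from conditioned medium of HT-1080 cells engineered to overexpress endogenous EL; HL partially purified from conditioned medium of HL-overexpressing COS cells. Enzyme preincubated with compound 30 min at 37° C in 50 mM HEPES pH 8.0, 50 mM NaCl, 1 mM CaCl2; DMPG vesicles carrying FRET substrate (0.11 mole fraction) then added.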
On to `COCCS(=O)(=O)C(C(=O)NCC(=O)NC1COC1)c1nc2ccc(-c3ccc(F)nc3)cc2s1` (stereo not drawn) [Example 384, 2-[6-(6-fluoropyridin-3-yl)-1,3-benzothiazol-2-yl]-2-(2-methoxyethane-sulfonyl)-N-{[(oxetan-3-yl)carbamoyl]methyl} acetamide], for which the pIC50 is 7.89. Same read-out and setting: under `COCCS(=O)(=O)C(C(=O)NCC(=O)NC1CC1)c1nc2cc(-c3ccc(F)nc3)ccc2s1` (stereo not drawn) [Example 385, N-[(cyclopropyl-carbamoyl)methyl]-2-[5-(6-fluoropyridin-3-yl)-1,3-benzothiazol-2-yl]-2-(2-methoxyethane-sulfonyl)acetamide] stands 7.89; under `COCCS(=O)(=O)C(C(=O)NCC(=O)NC1COC1)c1nc2cc(-c3ccc(F)nc3)ccc2s1` (stereo not drawn) [Example 386, 2-[5-(6-fluoropyridin-3-yl)-1,3-benzothiazol-2-yl]-2-(2-methoxyethane-sulfonyl)-N-{[(oxetan-3-yl)carbamoyl]methyl} acetamide], 7.60; under `COCCS(=O)(=O)C(C(=O)NCC(=O)NC1(C)CCC1)c1nc2cc(-c3ccc(F)nc3)ccc2s1` (stereo not drawn) [Example 387, 2-[5-(6-fluoropyridin-3-yl)-1,3-benzothiazol-2-yl]-2-(2-methoxyethane-sulfonyl)-N-{[(1-methylcyclobutyl)carbamoyl]methyl} acetamide], 7.55. The same measure, in the same setting: under `COCCS(=O)(=O)C(C(=O)NCC(=O)NC1(c2ccccn2)CC1)c1nc2ccc(-c3ccc(F)nc3)cc2s1` (stereo not drawn) [Example 388, 2-[6-(6-fluoropyridin-3-yl)-1,3-benzothiazol-2-yl]-2-(2-methoxyethane-sulfonyl)-N-({[1-(pyridin-2-yl)cyclopropyl]carbamoyl}methyl) acetamide] stands 7.32. Still for that read-out and setting: under `COCCS(=O)(=O)C(C(=O)NCC(=O)NCC1CC1)c1nc2cc(-c3ccc(F)nc3)ccc2s1` (stereo not drawn) [Example 389, N-{[(cyclopropyl-methyl)carbamoyl]methyl}-2-[5-(6-fluoropyridin-3-yl)-1,3-benzothiazol-2-yl]-2-(2-methoxyethane-sulfonyl)acetamide] stands 7.23. Compound `COCCNC(=O)CNC(=O)C(c1nc2cc(-c3ccc(F)nc3)ccc2s1)S(=O)(=O)CCOC` (stereo not drawn) [Example 390, 2-[5-(6-fluoropyridin-3-yl)-1,3-benzothiazol-2-yl]-2-(2-methoxyethane-sulfonyl)-N-{[(2-methoxyethyl)carbamoyl]methyl} acetamide] had a pIC50 of 6.99. `COCCS(=O)(=O)C(C(=O)NCC(=O)NC1(c2ncon2)CC1)c1nc2ccc(-c3ccc(F)nc3)cc2s1` (stereo not drawn) [Example 391, 2-[6-(6-fluoropyridin-3-yl)-1,3-benzothiazol-2-yl]-2-(2-methoxyethane-sulfonyl)-N-({[1-(1,2,4-oxadiazol-3-yl)cyclopropyl]carbamoyl}methyl) acetamide] showed a negative-log IC50 (pIC50) of 7.17. Same read-out and setting: under `COCCS(=O)(=O)C(C(=O)NCC(=O)NC1(C)CC1)c1nc2cc(-c3ccc(F)nc3)ccc2s1` (stereo not drawn) [Example 392, 2-[5-(6-fluoropyridin-3-yl)-1,3-benzothiazol-2-yl]-2-(2-methoxyethane-sulfonyl)-N-{[(1-methylcyclopropyl)carbamoyl]methyl} acetamide] stands 7.85; under `COCCS(=O)(=O)C(C(=O)NCC(=O)NC1CC1)c1nc2cc(-c3cccc(C(=O)NCC(F)(F)F)c3)ccc2s1` (stereo not drawn) [Example 394, 3-[2-({[(cyclopropyl-carbamoyl)methyl]carbamoyl}(2-methoxyethane-sulfonyl)methyl)-1,3-benzothiazol-5-yl]-N-(2,2,2-trifluoroethyl) benzamide], 8.40; under `COCCS(=O)(=O)C(C(=O)NCC(=O)NC1CC1)c1nc2cc(-c3cccc(C(=O)N4CCOCC4)c3)ccc2s1` (stereo not drawn) [Example 395, N-[(cyclopropyl-carbamoyl)methyl]-2-(2-methoxyethane-sulfonyl)-2-{5-[3-(morpholine-4-arbonyl)phenyl}-1,3-benzothiazol-2-yl}acetamide], 8.40. In turn, `COCCS(=O)(=O)C(C(=O)NCC(=O)NC1CC1)c1nc2cc(-c3cccc(C(=O)N4CCC(F)(F)C4)c3)ccc2s1` (stereo not drawn) [Example 396, N-[(cyclopropyl-carbamoyl)methyl]-2-{5-[3-(3,3-difluoro-pyrrolidine-1-carbonyl)phenyl]-1,3-benzothiazol-2-yl}-2-(2-methoxyethane-sulfonyl)acetamide] showed a pIC50 of 8.10. Take `COCCS(=O)(=O)C(C(=O)NCC(=O)NC1CC1)c1nc2cc(-c3cccc(C(=O)N4CCN(C)CC4)c3)ccc2s1` (stereo not drawn) [Example 397, N-[(cyclopropyl-carbamoyl)methyl]-2-(2-methoxyethane-sulfonyl)-2-{5-[3-(4-methylpiperazine-1-carbonyl)phenyl]-1,3-benzothiazol-2-yl}acetamide]: the pIC50 is 7.72. This pIC50 is 0.38 log units lower than that of the compound before. Still for that read-out and setting: under `COCCS(=O)(=O)C(C(=O)NCC(=O)NC1CC1)c1nc2cc(-c3cccc(C(=O)N(C)C)c3)ccc2s1` (stereo not drawn) [Example 398, 3-[2-({[(cyclopropyl-carbamoyl)methyl]carbamoyl}(2-methoxyethane-sulfonyl)methyl)-1,3-benzothiazol-5-yl]-N,N-dimethyl-benzamide] stands 7.42; under `COCCS(=O)(=O)C(C(=O)NCC(=O)NC1CC1)c1nc2cc(-c3cccc(C(=O)NCCO)c3)ccc2s1` (stereo not drawn) [Example 399, 3-[2-({[(cyclopropyl-carbamoyl)methyl]carbamoyl}(2-methoxyethane-sulfonyl)methyl)-1,3-benzothiazol-5-yl]-N-(2-hydroxyethyl) benzamide], 7.20; under `COCCNC(=O)c1cccc(-c2ccc3sc(C(C(=O)NCC(=O)NC4CC4)S(=O)(=O)CCOC)nc3c2)c1` (stereo not drawn) [Example 400, 3-[2-({[(cyclopropyl-carbamoyl)methyl]carbamoyl}(2-methoxyethane-sulfonyl)methyl)-1,3-benzothiazol-5-yl]-N-(2-methoxyethyl) benzamide], 8.05. Consider `COC1(C)CN(C(=O)c2ccc(-c3ccc4nc(C(C(=O)NCC(=O)NC5CC5)S(=O)(=O)c5ccccc5)sc4c3)cc2)C1` (stereo not drawn) [Example 401, 2-(benzenesulfonyl)-N-[(cyclopropyl-carbamoyl)methyl]-2-{6-[4-(3-methoxy-3-methylazetidine-1-carbonyl)phenyl]-1,3-benzothiazol-2-yl}acetamide], for which the pIC50 was 8.30. The same measure, in the same setting: under `CC1(O)CN(C(=O)c2ccc(-c3ccc4nc(C(C(=O)NCC(=O)NC5CC5)S(=O)(=O)c5ccccc5)sc4c3)cc2)C1` (stereo not drawn) [Example 402, 2-(benzenesulfonyl)-N-[(cyclopropyl-carbamoyl)methyl]-2-{6-[4-(3-hydroxy-3-methylazetidine-1-carbonyl)phenyl]-1,3-benzothiazol-2-yl}acetamide] stands 8.22; under `COCCS(=O)(=O)C(C(=O)NCC(=O)NC1CC1)c1nc2ccc(-c3ccc(C(=O)N4CC[C@H](OC)C4)cc3)cc2s1` (stereo partly drawn) [Example 403, N-[(cyclopropyl-carbamoyl)methyl]-2-(2-methoxyethane-sulfonyl)-2-(6-{4-[(3S)-3-methoxy-pyrrolidine-1-carbonyl]phenyl}-1,3-benzothiazol-2-yl)acetamide], 8.10. As for `COCCS(=O)(=O)C(C(=O)NCC(=O)NC1CC1)c1nc2ccc(-c3ccc(C(=O)N4CC(F)C4)cc3)cc2s1` (stereo not drawn) [Example 404], the pIC50 is 8.00. On the same count and under the same terms, under `COCCS(=O)(=O)C(C(=O)NCC(=O)NC1CC1)c1nc2ccc(-c3ccc(C(=O)N4CC(C)(O)C4)cc3)cc2s1` (stereo not drawn) [Example 405, N-[(cyclopropyl-carbamoyl)methyl]-2-{6-[4-(3-hydroxy-3-methylazetidine-1-carbonyl)phenyl]-1,3-benzothiazol-2-yl}-2-(2-methoxyethane-sulfonyl)acetamide] stands 7.92; under `COCCS(=O)(=O)C(C(=O)NCC(=O)NC1CC1)c1nc2ccc(-c3ccc(C(=O)N4CC(F)(F)C4)cc3)cc2s1` (stereo not drawn) [Example 406, N-[(cyclopropyl-carbamoyl)methyl]-2-{6-[4-(3,3-difluoroazetidine-1-carbonyl)phenyl]-1,3-benzothiazol-2-yl}-2-(2-methoxyethane-sulfonyl)acetamide], 7.89; under `COCCS(=O)(=O)C(C(=O)NCC(=O)NC1CC1)c1nc2ccc(-c3ccc(C(=O)N4CC[C@@H](OC)C4)cc3)cc2s1` (stereo partly drawn) [Example 407, N-[(cyclopropyl-carbamoyl)methyl]-2-(2-methoxyethane-sulfonyl)-2-(6-{4-[(3R)-3-methoxy-pyrrolidine-1-carbonyl]phenyl}-1,3-benzothiazol-2-yl)acetamide], 7.62. For `COCCS(=O)(=O)C(C(=O)NCC(=O)NC1CC1)c1nc2ccc(-c3ccc(C(=O)O)cc3)cc2s1` (stereo not drawn) [Example 408, 4-[2-({[(cyclopropyl-carbamoyl)methyl]carbamoyl}(2-methoxyethane-sulfonyl)methyl)-1,3-benzothiazol-6-yl]benzoic acid], the pIC50 was 7.32. `COCCNC(=O)c1ccc(-c2ccc3nc(C(C(=O)NCC(=O)NC4CC4)S(=O)(=O)CCOC)sc3c2)cc1OC` (stereo not drawn) [Example 409, 4-[2-({[(cyclopropyl-carbamoyl)methyl]carbamoyl}(2-methoxyethane-sulfonyl)methyl)-1,3-benzothiazol-6-yl]-2-methoxy-N-(2-methoxyethyl) benzamide]: the pIC50 was 7.64.

`COCCNC(=O)c1ccc(-c2ccc3nc(C(C(=O)NCC(=O)NC4CC4)S(C)(=O)=O)sc3c2)cc1OC` (stereo not drawn) [Example 410, 4-[2-({[(cyclopropyl-carbamoyl)methyl]carbamoyl} (methanesulfonyl)methyl)-1,3-benzothiazol-6-yl]-2-methoxy-N-(2-methoxyethyl) benzamide] had a pIC50 of 7.28.

The same assay, now with this note: EL from conditioned media of HT-1080 cells; 30 min preincubation at 37° C.
The compound `COCCS(=O)(=O)C(C(=O)NCC(=O)NC1CC1)c1nc2ccc(-c3ccc(C(=O)N(C)C4CC4)cc3)cc2s1` (stereo not drawn) [Example 393, N-Cyclopropyl-4-(2-(2-((2-(cyclopropylamino)-2-oxoethyl)amino)-1-((2-methoxyethyl)sulfonyl)-2-oxoethyl)benzo[d]thiazol-6-yl)-N-methylbenzamide] gave a negative-log IC50 (pIC50) of 7.48.
